In data set [1] the test system is serological markers of inflammation and bone turnover. Kind of data set: Serum biochemical markers in RA patients, Phase IIa study of rituximab. The class given is in vivo, human. The settings on record: week 24 vs baseline, n = 40. On the procedure:
Serum samples were analyzed from RA+ patients who received either methotrexate (MTX) alone or MTX in combination with a single course of rituximab as part of a Phase IIa study of rituximab in RA to be reported elsewhere. The following markers were measured at baseline and Week 24: anti-CCP, CRP, S100, SAA, PINP and Osteocalcin (OC).
Biomarker data were analyzed using a non-parametric approach by comparing the percentage changes at 24-weeks from baseline in MTX group with the RTX+MTX group. The median percent change from baseline was plotted using the following formula: Pcfb1(marker)=((slope—lr*study time at last visit)/intercept—lr)*100
where slope_lr=slope of linear regression for each patient • intercept_lr=intercept of linear regression for each patient.

For data set [2] the following is noted: cited from earlier work; for effect in rat adjuvant / experimental arthritis: in vivo.
Data set [3] can be described thus: ACR50 clinical response in RA, Phase IIa study of rituximab. The class given is in vivo, human. The conditions noted are these: two infusions of rituximab two weeks apart with ongoing MTX, versus MTX alone.
Data set [4] in a line: Bone remodeling in animals (Example 2). The settings on record: rats, subcutaneously once per day for 35 days.
The test system of data set [5] is TRAP-positive osteoclasts. Kind of data set: TRAP assay, osteoclasts formed in vitro (Example 4).
Experimental: TRAP refers to tartrate-resistant acid phosphatase that identifies osteoclast-like cells.
In this test, naphthol AS-MX phosphate 5 mg (Sigma, St. Louis, Mo.) is resolved in 0.5 ml of N,N-dimethylformamide (Wako). Thirty milligrams of fast red violet LB salt (Sigma) and 50 ml of 0.1 M sodium acetate buffer (pH 5.0) containing 50 mM sodium tartrate are added to the mixture (the TRAP-staining solution). Cells are fixed with 3.7% (v/v) formaldehyde in Ca^2− and Mg^2+-free phosphate-buffered saline for 10 min, fixed again with ethanol-acetone (50:50, v:v) for 1 min, and incubated with the TRAP-staining solution for 10 min. at room temperature. TRAP-positive osteoclasts appear as red cells. The incubation period should not exceed 10 min. since cells other than osteoclasts become weakly positive with time. After staining, cells are washed with distilled water, and TRAP-positive multinucleated cells having three or more nuclei are counted as osteoclasts under a microscope (Nicholson et al., J. Clin. Invest. 78: 355 (1986)).
The nature of data set [6]: Periodontal disease model (Example 5). The class given is in vivo. The conditions noted are these: applied to the periodontal pocket. As to the method: Rituximab may be used to regenerate bone and ligament lost to periodontal disease. In this model teeth showing 20% to 80% reduction of surrounding jaw bone are scaled, then a full-thickness gingival flap is made by an incision to expose the jaw bone and tooth root. The root is planed to remove bacterial plaque and calculus. Rituximab is applied to the periodontal pocket in a 2.5% HPMC gel at a dose of […] per tooth, or alternatively a solution of rituximab in 100 mM sodium acetate buffer, pH 6.0 is added to powdered bone to provide a dosage of […] rituximab per tooth. The material is thoroughly mixed and applied to the exposed periodontal pocket. In both cases, the gingival flap is then closed and held in place by suturing.

The conditions of data set [7]: pH 5; cited from earlier work.
In data set [8] the test system is serological markers of inflammation and bone turnover. The experiment in a line: Serum biochemical markers in RA patients, Phase IIa study of rituximab. The class given is in vivo, human. The settings on record: RA patients treated with rituximab.
The test system of the next data set is lymphoid B-cell lines. The settings on record: cited from earlier work.
Another data set deals with B cells. The conditions noted are these: cynomolgus monkey; cited from earlier work.
For data set [9] the following is noted: in vivo; cited from earlier work.
The conditions of data set [10]: in vivo; cited from earlier work. The source holds these as a separate data set.

As for `CN(Cc1cnc2nc(N)nc(N)c2n1)c1ccc(C(=O)N[C@@H](CCC(=O)O)C(=O)O)cc1` [MTX, methotrexate], in data set [1], the “Anti-CCP (anti-citrullinated peptide antibody), median % change from baseline at 24 weeks” value is given as −21.03%; the “CRP (C-reactive protein), median % change from baseline at 24 weeks” value is given as −22.21%; the “OC (osteocalcin), median % change from baseline at 24 weeks” value is recorded as 1.94%; the “P-1NP (procollagen type 1 N-terminal propeptide), median % change from baseline at 24 weeks” value was −11.78%. Also, in [1], the “S100 (S100 A8/9), median % change from baseline at 24 weeks” value was −14.31% and the “SAA (serum amyloid A), median % change from baseline at 24 weeks” value is given as −10.55%.
With `O=P(O)(O)C(O)(Cc1cccnc1)P(=O)(O)O` [NE58095], the “effect in rat adjuvant / experimental arthritis” value in [2] is “prevents bone erosion and preserves joint architecture”.
With `O=P(O)(O)C(O)(Cn1ccnc1)P(=O)(O)O` [Zoledronate], the “effect in rat adjuvant / experimental arthritis” value in data set [2] was “protects against meta hyseal intracortical defets”.
Turning to `O=P(O)(O)C(Cl)(Cl)P(=O)(O)O` [clodronate], the “effect in arthritis study at 20 mg/kg/day iv infusion” value in data set [2] (20 mg/kg/day iv infusion) was “decreases pedal inflammation and bone resorption, but also inhibits bone formation”. Also, the “effect in rat adjuvant / experimental arthritis” value in data set [2] is “decrease weight loss, pedal inflammation, and bone resorption”.
Take `CC(O)(P(=O)(O)O)P(=O)(O)O` [etridronate]: the “effect in rat adjuvant / experimental arthritis” value in data set [2] is “decrease weight loss, pedal inflammation, and bone resorption”.
Consider “Rituximab + MTX: MTX in combination with a single course of rituximab”, for which, in data set [1], the “Anti-CCP (anti-citrullinated peptide antibody), median % change from baseline at 24 weeks” value was −45.78%; the “CRP (C-reactive protein), median % change from baseline at 24 weeks” value is on record as −59.07%; the “OC (osteocalcin), median % change from baseline at 24 weeks” value is listed as 28.76%; the “P-1NP (procollagen type 1 N-terminal propeptide), median % change from baseline at 24 weeks” value turned out to be 13.64%. Besides, in data set [1], the “S100 (S100 A8/9), median % change from baseline at 24 weeks” value is listed as −52.73% and the “SAA (serum amyloid A), median % change from baseline at 24 weeks” value is given as −77.02%. The “ACR50 response at 24 weeks” value in data set [3] is on record as “significantly higher clinical responses”.
“humanized 2H7: humanized CD20 antibody, or antigen-binding fragment, comprising at least CDR H3 of SEQ ID NO:12 and human VHIII framework”: the “bone remodeling versus controls” value in data set [4] is on record as “effective in enhancing bone remodeling over the controls”. The “performance as positive control in TRAP assay” value in [5] is recorded as “effective as a positive control”. Moreover, the “regeneration of surrounding jaw bone versus placebo” value in data set [6] is “at least partially regenerated”.
On to rituximab, for which the minimum shelf life result in data set [7] is recorded as “two”. For the same molecule, the “bone remodeling versus controls” value in data set [4] is reported as “effective in enhancing bone remodeling over the controls”. The Total immunoglobulin levels result in [8] is “not affected significantly”. Besides, the “complement-dependent cytotoxicity (CDC)” value in the data set with lymphoid B-cell lines was “lyses lymphoid B-cell lines”. Moreover, the “performance as positive control in TRAP assay” value in data set [5] was “effective as a positive control”. Also, in data set [6], the “regeneration of surrounding jaw bone versus placebo” value is “at least partially regenerated”. In addition, in the data set with B cells, the “B-cell depletion in vivo” value was “depletes B cells from the peripheral blood, lymph nodes, and bone marrow”. Besides, the “patients admitted to the hospital for overnight observation after moderate fever and rigors following the first infusion” value in data set [9] is 1 of 10. Moreover, the “patients experiencing at least one adverse event during their first infusion” value in data set [10] is recorded as 36%.

The record behind these values is patent publication US20060263355A1, “Treatment of bone disorders” (priority 2005, published 2006).
